According to publication PMC3407795 (EJNMMI Research, 2012):
Where two headings read alike, the source gives them in different places.

Experiments:
[1] = Metabolism in blood (in vivo stability); design: species or system mouse; settings: healthy male Swiss albino mice, blood collected 5 min after iv injection (3 nmol), RP-HPLC radioanalysis
Description: The animals were kept for 5 min in cages with free access to water. They were sacrificed by cardiac puncture under ether anesthesia, and blood was withdrawn with a syringe and immediately placed in a pre-chilled EDTA-containing polypropylene vial on ice. Blood samples were centrifuged at 2,000 × g at 4 °C for 10 min.

[2] = Biodistribution in healthy mice; assay type: in vivo; settings: male, mouse, 10 pmol total peptide, total radioactivity, healthy Swiss albino mice, iv 10 pmol; for tissue uptake at 4 h: 4 h pi
Description: In the in vivo receptor blockade animal group, excess Tate (50 nmol) was administered intravenously (iv) together with the radioligand. Animals were sacrificed in groups of four at 4- and 24-h time points post injection (pi). […] Tissue distribution data were calculated as percent injected dose per gram (%ID/g) applying a suitable algorithm.
The in vivo data presented as mean %ID/g ± SD (n ≥ 4) were statistically analyzed with Student’s t test (Prism^TM 2.01, GraphPad Software, San Diego, CA, USA). Analyses were 2-tailed, and a P value < 0.05 was considered statistically significant.

## C[C@H](NC(=O)CN1CCN(CC(=O)O)CCN(CC(=O)O)CCN(CC(=O)O)CC1)C(=O)NCC(=O)N[C@H]1CSSC[C@@H](C(=O)O)NC(=O)[C@H](CO)NC(=O)[C@H]([C@@H](C)O)NC(=O)[C@H](Cc2ccccc2)NC(=O)[C@H]([C@@H](C)O)NC(=O)[C@H](CCCCN)NC(=O)[C@H](Cc2c[nH]c3ccccc23)NC(=O)[C@H](Cc2ccccc2)NC(=O)[C@H](Cc2ccccc2)NC(=O)[C@H](CC(N)=O)NC(=O)[C@H](CCCCN)NC1=O [[^111In]AT1S, metal not drawn]
[1]
  intact radiopeptide detected in blood: 2%
[2]; kidney, read-out: Kidney uptake
  tissue uptake at 4 h: 10.9 %ID/g
[2]; kidney, 24 h pi
  tissue uptake at 24 h: 6.6 %ID/g
[2]; pancreas, read-out: Pancreas uptake
  tissue uptake at 4 h: < 0.5 %ID/g
